The target in one series is T1, FL AKT1 (Homo sapiens, UniProt P31749).
T1 construct: Full-length human AKT1 gene was amplified by PCR; His tag (from vector pFastBacHTb; own knowledge that this vector adds an N-terminal 6xHis and TEV site) (N); made in house; host or cells: baculovirus; virus produced in Sf9, protein expressed in T. ni insect cells
As to the kind of experiment: Full-length AKT enzyme assay (substrate phosphorylation, SPA). Type of series: biochemical. Conditions: 4 uM ATP.

The target in a further series is T2, FL AKT2 (Homo sapiens, UniProt P31751).
T2 construct: 0.025 um, FL AKT2
The series is described as above. The class given is biochemical. Conditions: 4 uM ATP.

Series [1] has as its system BT474 (human breast carcinoma). Description: Methylene Blue Growth Inhibition Assay. Type of series: cell-based. As to conditions: BT-474, 72 h, BT474, 3 days. As for the experimental part:
(§1) Tumor cell lines used in this assay were BT474 (human breast carcinoma) and LNCaP (lymph node metastasis of prostate cancer). HFF (normal human foreskin fibroblast) was also included. All cell lines were cultured in RPMI 1640 media (Invitrogen Corporation 22400-071) containing 10% Fetal Bovine Serum (FBS) at 37° C. in a humidified 5% CO2 incubator. Cells were harvested using trypsin/EDTA, counted using a hemacytometer and plated in 96-well tissue culture plates (Costar 35-3075), 100 uL per well, at the following densities: BT474 15,000 cells/well, LNCaP 5,000 cells/well and HFF 5,000 cells/well. 10 mM stocks of compounds in DMSO were serially diluted in DMSO through nine 3-fold dilutions in 96-well plates (Costar Corning 3363), and stored at −80C. The next day, compound dilutions were thawed and 4 uL of each transferred to 662 uL RPMI 1640+100 ug/mL gentamicin, resulting in twice the final required test concentrations. 100 uL of compounds diluted in RPMI 1640 were added to all cell lines. The final concentration of DMSO in all wells, including controls, was 0.3%. Cells were incubated at 37C, 5% CO2 for 3 days. Medium was removed by aspiration. Cell biomass was estimated by staining cells with 80 uL methylene blue (Sigma M9140, 0.5% in 50:50 ethanol:water), and incubating at room temperature for 1 hour. Stain was aspirated and the plates rinsed by immersion in water, then air-dried. Stain was released from cells by adding 100 uL of solubilizing solution (1% N-lauroyl sarcosine, sodium salt, Sigma L5125, in PBS) and incubating at room temperature for at least 30 minutes. Plates were shaken and the optical density at 620 nm was measured on a microplate reader. Percent inhibition of cell growth was calculated relative to vehicle-treated control wells. Concentration of compound that inhibits 50% of cell growth (IC50) was interpolated using non-linear regression (Levenberg-Marquadt) and the equation, y=Vmax*(1−(x̂n/K̂n+x̂n)))+Y2. [Ref: Mager, M. E. (1972) Data Analysis in Biochemistry and Biophysics. New York: Academic Press]

Series [2] concerns HFF (normal human foreskin fibroblast). Description: Methylene Blue Growth Inhibition Assay. Type of series: cell-based. Conditions: 72 h, 3 days. As for the experimental part: as §1
For series [3], the system named is LNCaP (lymph node metastasis of prostate cancer). Description: Methylene Blue Growth Inhibition Assay. Type of series: cell-based. Conditions: Homo sapiens, 72 h, 3 days. Here is the method:
as §1

A short description of series [4]: Solubility in 50 mM phosphate buffer at pH 7.4. Type of series: physicochemical. Conditions: aqueous buffer.

Experimental findings from US20090227616A1, “INHIBITORS OF AKT ACTIVITY” (SMITHKLINE BEECHAM CORPORATION, a corporation, priority 2005, published 2009) are described below.

As usually defined, the IC50 is the point on the concentration scale where inhibition reaches its midpoint. Read a low IC50 as greater potency. As usually defined, the solubility is the dissolved amount per volume that the medium holds. Low values mean a poorly soluble substance, high ones a readily soluble substance.

Molecules are shown by their SMILES. ≈ marks a conversion by molar mass, not a printed value.

T2 sequence (P31751 whole entry): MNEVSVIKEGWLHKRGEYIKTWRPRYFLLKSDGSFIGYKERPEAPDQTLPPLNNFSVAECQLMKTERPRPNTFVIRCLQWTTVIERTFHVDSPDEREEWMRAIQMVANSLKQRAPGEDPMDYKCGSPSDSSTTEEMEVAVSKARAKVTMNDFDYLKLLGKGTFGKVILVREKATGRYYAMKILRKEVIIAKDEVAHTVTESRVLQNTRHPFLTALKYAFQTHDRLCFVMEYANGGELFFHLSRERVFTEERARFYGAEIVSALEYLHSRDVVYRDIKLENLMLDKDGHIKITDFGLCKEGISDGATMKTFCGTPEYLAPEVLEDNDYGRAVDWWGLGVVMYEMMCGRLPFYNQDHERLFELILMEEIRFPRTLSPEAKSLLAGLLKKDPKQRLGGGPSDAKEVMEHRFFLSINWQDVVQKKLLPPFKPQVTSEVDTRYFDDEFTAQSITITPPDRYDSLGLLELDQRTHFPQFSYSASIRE
T1 sequence (P31749 whole entry): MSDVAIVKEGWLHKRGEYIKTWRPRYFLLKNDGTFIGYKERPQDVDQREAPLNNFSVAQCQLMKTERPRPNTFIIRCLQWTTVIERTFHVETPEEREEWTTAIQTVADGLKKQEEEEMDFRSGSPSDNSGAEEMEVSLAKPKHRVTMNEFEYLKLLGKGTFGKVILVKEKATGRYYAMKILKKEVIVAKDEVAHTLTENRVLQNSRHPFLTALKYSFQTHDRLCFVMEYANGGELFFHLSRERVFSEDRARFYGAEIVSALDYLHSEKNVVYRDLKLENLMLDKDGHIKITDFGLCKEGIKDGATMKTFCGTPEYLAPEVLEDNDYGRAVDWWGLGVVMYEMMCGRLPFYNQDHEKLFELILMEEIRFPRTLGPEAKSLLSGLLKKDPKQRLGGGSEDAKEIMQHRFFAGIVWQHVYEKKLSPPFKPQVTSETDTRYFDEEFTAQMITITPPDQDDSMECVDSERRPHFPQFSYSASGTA

With `CCn1c(-c2nonc2N)nc2c(C#CC(C)(C)O)ncc(OCCCN3CCCC3)c21` [Example 2, 4-(2-(4-amino-1,2,5-oxadiazol-3-yl)-1-ethyl-7-{[3-(1-pyrrolidinyl)propyl]oxy}-1H-imidazo[4,5-c]pyridin-4-yl)-2-methyl-3-butyn-2-ol], the IC50 against FL AKT1 is 0.002 µM; against FL AKT2, 0.016 µM; in series [1] it was 0.437 µM; in series [2], more than 15 µM; in series [3], 0.096 µM. Further, in series [4], the solubility was determined as 152 µM (≈ 66.8 µg/mL).

Consider `CCn1c(-c2nonc2N)nc2c(C#CC(C)(C)O)ncc(OCCC(N)C3CCSCC3)c21` (single isomer, unassigned; (-)) [Example 14, (−)-4-(2-(4-amino-1,2,5-oxadiazol-3-yl)-7-{[3-amino-3-(tetrahydro-2H-thiopyran-4-yl)propyl]oxy}-1-ethyl-1H-imidazo[4,5-c]pyridin-4-yl)-2-methyl-3-butyn-2-ol], for which the IC50 in series [1] came to 0.264 µM; in series [2], 19.2 µM; in series [3], 0.056 µM. Also, the solubility in series [4] is 151 µM (≈ 73.3 µg/mL).

On to `CCn1c(-c2nonc2N)nc2c(C#CC(C)(C)O)ncc(OCCCNCC3CC3)c21` [Example 10, 4-[2-(4-amino-1,2,5-oxadiazol-3-yl)-7-({3-[(cyclopropylmethyl)amino]propyl}oxy)-1-ethyl-1H-imidazo[4,5-c]pyridin-4-yl]-2-methyl-3-butyn-2-ol], for which the results for the IC50 in series [1], in series [2] and in series [3] were 0.249 µM, 17.5 µM and 0.066 µM, respectively. Also, the solubility in series [4] was 140 µM (≈ 61.5 µg/mL).

With `CCn1c(-c2nonc2N)nc2c(C#CC(C)(C)O)ncc(OCCCN3CCCCC3)c21` [Example 1, 4-(2-(4-amino-1,2,5-oxadiazol-3-yl)-1-ethyl-7-{[3-(1-piperidinyl)propyl]oxy}-1H-imidazo[4,5-c]pyridin-4-yl)-2-methyl-3-butyn-2-ol], the IC50 against FL AKT1 stood at 0.003 µM; at FL AKT2 it was 0.025 µM; in series [1], 0.496 µM; in series [2], 17.7 µM; in series [3], 0.096 µM. Besides, the concentration in solution in series [4] (solubility) was 35 µM (≈ 15.9 µg/mL).

As to `CCn1c(-c2nonc2N)nc2c(C#CC(C)(C)O)ncc(OCC3(CN)CC3)c21` [Example 15, 4-[7-({[1-(aminomethyl)cyclopropyl]methyl}oxy)-2-(4-amino-1,2,5-oxadiazol-3-yl)-1-ethyl-1H-imidazo[4,5-c]pyridin-4-yl]-2-methyl-3-butyn-2-ol], the IC50 is 0.093 µM in series [1], more than 30 µM in series [2] and 0.11 µM in series [3]. The same molecule had a solubility in series [4] of 160 µM (≈ 65.8 µg/mL).

Regarding `CCn1c(-c2nonc2N)nc2c(C#CC(C)(C)O)ncc(OCC(F)CN)c21` (single isomer, unassigned) [Example 17, 4-[7-[(3-amino-2-(−)-fluoropropyl)oxy]-2-(4-amino-1,2,5-oxadiazol-3-yl)-1-ethyl-1H-imidazo[4,5-c]pyridin-4-yl]-2-methyl-3-butyn-2-ol], the IC50 in series [1] is 0.022 µM; in series [2], 6.25 µM; in series [3], 0.012 µM. This molecule returned a solubility in series [4] of 92 µM (≈ 37.1 µg/mL).
